# Data reported in ChEMBL document CHEMBL3885881, “DrugMatrix”.
# Species on record: Rattus norvegicus
# Assay: DrugMatrix - Regimen: Daily Repeat
# Type: toxicity, organism-based, Sprague-Dawley
# Set-up: regimen Daily Repeat, gender Male, age 6-8 weeks
# Conditions: in vivo, po, route oral GAVAGE, […]; for ABSOLUTE BASOPHIL / ABSOLUTE EOSINOPHIL / ABSOLUTE LYMPHOCYTE / ABSOLUTE MONOCYTE / ABSOLUTE SEGMENTED NEUTROPHIL / BASOPHIL / EOSINOPHIL / ERYTHROCYTE COUNT / HEMATOCRIT / HEMOGLOBIN / LEUKOCYTE COUNT / LYMPHOCYTE / MEAN CORPUSCULAR HEMOGLOBIN / MEAN CORPUSCULAR HEMOGLOBIN CONCENTRATION / MEAN CORPUSCULAR VOLUME / MONOCYTE / NEUTROPHIL / NUCLEATED RED BLOOD CELLS / PLATELET COUNT: tissue Blood; for ALANINE AMINOTRANSFERASE / ALBUMIN / ALKALINE PHOSPHATASE / ASPARTATE AMINOTRANSFERASE / BLOOD UREA NITROGEN / CARBON DIOXIDE / CHLORIDE / CHOLESTEROL / CREATINE PHOSPHOKINASE / CREATININE / GLUCOSE / LACTATE DEHYDROGENASE / LIPASE / PHOSPHORUS / POTASSIUM / SODIUM / TOTAL BILIRUBIN / TOTAL PROTEIN / URIC ACID: tissue Plasma
# [1] = 3 mg/kg, 120 h, dose level Low, time 5 day
# [2] = 110 mg/kg, 72 h, dose level High, time 3 day
# [3] = 110 mg/kg, 120 h, dose level High, time 5 day
smiles,measurement,setting,value
Cc1cccc(Nc2ccncc2S(=O)(=O)NC(=O)NC(C)C)c1 [TORSEMIDE],ABSOLUTE BASOPHIL,[1],0 CELLS/uL
same,ABSOLUTE EOSINOPHIL,[1],64 CELLS/uL
same,ABSOLUTE LYMPHOCYTE,[1],7502 CELLS/uL
same,ABSOLUTE MONOCYTE,[1],142 CELLS/uL
same,ABSOLUTE SEGMENTED NEUTROPHIL,[1],525.33 CELLS/uL
same,BASOPHIL,[1],0%
same,EOSINOPHIL,[1],0.67%
same,ERYTHROCYTE COUNT,[1],5.57 x10E6/uL
same,HEMATOCRIT,[1],35.4%
same,HEMOGLOBIN,[1],13.63 G/DL
same,LEUKOCYTE COUNT,[1],8.23 x10E3/uL
same,LYMPHOCYTE,[1],91.33%
same,MEAN CORPUSCULAR HEMOGLOBIN,[1],24.57 pg
same,MEAN CORPUSCULAR HEMOGLOBIN CONCENTRATION,[1],38.5 G/DL
same,MEAN CORPUSCULAR VOLUME,[1],63.67 fL
same,MONOCYTE,[1],1.67%
same,NEUTROPHIL,[1],6.33%
same,NUCLEATED RED BLOOD CELLS,[1],0 /100WBC
same,PLATELET COUNT,[1],1174 x10E3/uL
same,ALANINE AMINOTRANSFERASE,[1],54.67 u/L
same,ALBUMIN,[1],4 G/DL
same,ALKALINE PHOSPHATASE,[1],376.67 u/L
same,ASPARTATE AMINOTRANSFERASE,[1],76 u/L
same,BLOOD UREA NITROGEN,[1],11.67 mg/dL
same,CARBON DIOXIDE,[1],31.33 mmol/L
same,CHLORIDE,[1],100 MEQ/L
same,CHOLESTEROL,[1],63.67 mg/dL
same,CREATINE PHOSPHOKINASE,[1],293.67 u/L
same,CREATININE,[1],0.14 mg/dL
same,GLUCOSE,[1],148.67 mg/dL
same,LACTATE DEHYDROGENASE,[1],190.33 u/L
same,LIPASE,[1],10.33 u/L
same,PHOSPHORUS,[1],11.3 mg/dL
same,POTASSIUM,[1],6.36 MEQ/L
same,SODIUM,[1],144.87 MEQ/L
same,TOTAL BILIRUBIN,[1],0.17 mg/dL
same,TOTAL PROTEIN,[1],6.03 G/DL
same,URIC ACID,[1],0.47 mg/dL
same,ABSOLUTE BASOPHIL,[2],0 CELLS/uL
same,ABSOLUTE EOSINOPHIL,[2],0 CELLS/uL
same,ABSOLUTE LYMPHOCYTE,[2],16133.33 CELLS/uL
same,ABSOLUTE MONOCYTE,[2],63.33 CELLS/uL
same,ABSOLUTE SEGMENTED NEUTROPHIL,[2],1136.67 CELLS/uL
same,BASOPHIL,[2],0%
same,EOSINOPHIL,[2],0%
same,ERYTHROCYTE COUNT,[2],5.8 x10E6/uL
same,HEMATOCRIT,[2],36.3%
same,HEMOGLOBIN,[2],14.23 G/DL
same,LEUKOCYTE COUNT,[2],17.33 x10E3/uL
same,LYMPHOCYTE,[2],93.33%
same,MEAN CORPUSCULAR HEMOGLOBIN,[2],24.53 pg
same,MEAN CORPUSCULAR HEMOGLOBIN CONCENTRATION,[2],39.23 G/DL
same,MEAN CORPUSCULAR VOLUME,[2],62.57 fL
same,MONOCYTE,[2],0.33%
same,NEUTROPHIL,[2],6.33%
same,NUCLEATED RED BLOOD CELLS,[2],0 /100WBC
same,PLATELET COUNT,[2],1008.33 x10E3/uL
same,ALANINE AMINOTRANSFERASE,[2],60.33 u/L
same,ALBUMIN,[2],4.17 G/DL
same,ALKALINE PHOSPHATASE,[2],282 u/L
same,ASPARTATE AMINOTRANSFERASE,[2],86 u/L
same,BLOOD UREA NITROGEN,[2],29.33 mg/dL
same,CARBON DIOXIDE,[2],33.33 mmol/L
same,CHLORIDE,[2],93.33 MEQ/L
same,CHOLESTEROL,[2],69.33 mg/dL
same,CREATINE PHOSPHOKINASE,[2],98.67 u/L
same,CREATININE,[2],0.32 mg/dL
same,GLUCOSE,[2],148 mg/dL
same,LACTATE DEHYDROGENASE,[2],104.67 u/L
same,LIPASE,[2],12 u/L
same,PHOSPHORUS,[2],8.13 mg/dL
same,POTASSIUM,[2],5.2 MEQ/L
same,SODIUM,[2],142.37 MEQ/L
same,TOTAL BILIRUBIN,[2],0.2 mg/dL
same,TOTAL PROTEIN,[2],5.37 G/DL
same,URIC ACID,[2],1.2 mg/dL
same,ABSOLUTE BASOPHIL,[3],0 CELLS/uL
same,ABSOLUTE EOSINOPHIL,[3],0 CELLS/uL
same,ABSOLUTE LYMPHOCYTE,[3],12824.33 CELLS/uL
same,ABSOLUTE MONOCYTE,[3],353.67 CELLS/uL
same,ABSOLUTE SEGMENTED NEUTROPHIL,[3],788.67 CELLS/uL
same,BASOPHIL,[3],0%
same,EOSINOPHIL,[3],0%
same,ERYTHROCYTE COUNT,[3],6.15 x10E6/uL
same,HEMATOCRIT,[3],38.4%
same,HEMOGLOBIN,[3],14.97 G/DL
same,LEUKOCYTE COUNT,[3],13.97 x10E3/uL
same,LYMPHOCYTE,[3],92%
same,MEAN CORPUSCULAR HEMOGLOBIN,[3],24.37 pg
same,MEAN CORPUSCULAR HEMOGLOBIN CONCENTRATION,[3],38.97 G/DL
same,MEAN CORPUSCULAR VOLUME,[3],62.5 fL
same,MONOCYTE,[3],2.33%
same,NEUTROPHIL,[3],5.67%
same,NUCLEATED RED BLOOD CELLS,[3],0.33 /100WBC
same,PLATELET COUNT,[3],1188.33 x10E3/uL
same,ALANINE AMINOTRANSFERASE,[3],70 u/L
same,ALBUMIN,[3],4.5 G/DL
same,ALKALINE PHOSPHATASE,[3],395.67 u/L
same,ASPARTATE AMINOTRANSFERASE,[3],104 u/L
same,BLOOD UREA NITROGEN,[3],29 mg/dL
same,CARBON DIOXIDE,[3],38.33 mmol/L
same,CHLORIDE,[3],86.33 MEQ/L
same,CHOLESTEROL,[3],65.33 mg/dL
same,CREATINE PHOSPHOKINASE,[3],234.67 u/L
same,CREATININE,[3],0.3 mg/dL
same,GLUCOSE,[3],176 mg/dL
same,LACTATE DEHYDROGENASE,[3],220.33 u/L
same,LIPASE,[3],10.67 u/L
same,PHOSPHORUS,[3],8.93 mg/dL
same,POTASSIUM,[3],4.3 MEQ/L
same,SODIUM,[3],142.87 MEQ/L
same,TOTAL BILIRUBIN,[3],0.1 mg/dL
same,TOTAL PROTEIN,[3],6.83 G/DL
same,URIC ACID,[3],0.6 mg/dL
